Test results reported in US12441722B2, “Therapeutic agents and methods of treatment” (University of Florida Research Foundation, Incorporated, priority 2020, dated 2025).
pEC50: −log10 of the molar value.

test system: MOLT-4; experiment: Cell viability assay (tetrazolium-based MTS) in MOLT4 cells; details: MOLT4 acute lymphoblastic leukemia cells, 48 h incubation
Method: Cancer cells from acute lymphoblastic leukemia (MOLT4) were incubated with increasing concentrations of compounds of Examples 1-9 for 48 h. Cell viability was measured by tetrazolium-based MTS assay. 5×10^4 to 1×10^5 suspension cells or 3×10^3 to 5×10^3 adherent cells were seeded and treated in 96-well plates for 48 h. The EC50 values of individual agents were calculated with GraphPad Prism.

pEC50 | Structure (SMILES)
7.00 to 8.00 | Cc1c(-c2ccc(N3CCc4cccc(C(=O)Nc5nc6ccccc6s5)c4C3)nc2C(=O)NCCOCCOCCOCC#Cc2ccc3c(c2)C(=O)N(C2CCC(=O)NC2=O)C3=O)cnn1CC12CC3CC(CC(C3)C1)C2 (stereo not drawn) [degrader #27, 2-(5-(1-(adamantan-1-ylmethyl)-5-methyl-1H-pyrazol-4-yl)-6-((2-(2-(2-((3-(2-(2,6-dioxopiperidin-3-yl)-1,3-dioxoisoindolin-5-yl)prop-2-yn-1-yl)oxy)ethoxy)ethoxy)ethyl)carbamoyl)pyridin-2-yl)-N-(benzo[d]thiazol-2-yl)-1,2,3,4-tetrahydroisocuinoline-8-carboxamnide]
> 8.00 | Cc1c(-c2ccc(N3CCc4cccc(C(=O)Nc5nc6ccccc6s5)c4C3)nc2C(=O)NCCOCCOCCOCC#Cc2cccc3c2CN(C2CCC(=O)NC2=O)C3=O)cnn1CC12CC3CC(CC(C3)C1)C2 (stereo not drawn) [degrader #28, 2-(5-(1-(adamantan-1-ylmethyl)-5-methyl-1H-pyrazol-4-yl)-6-((2-(2-(2-((3-(2-(2,6-dioxopiperidin-3-yl)-1-oxoisoindolin-4-yl)prop-2-yn-1-yl)oxy)ethoxy)ethoxy)ethyl)carbamoyl)pyridin-2-yl)-N-(benzo[d]thiazol-2-yl)-1,2,3,4-tetrahydroisoguinoline-8-carboxamide]
> 8.00 | Cc1c(-c2ccc(N3CCc4cccc(C(=O)Nc5nc6ccccc6s5)c4C3)nc2C(=O)NCCOCCOCCOCC#Cc2ccc3c(c2)CN(C2CCC(=O)NC2=O)C3=O)cnn1CC12CC3CC(CC(C3)C1)C2 (stereo not drawn) [degrader #29, 2-(5-(1-(adamantan-1-ylmethyl)-5-methyl-1H-pyrazol-4-yl)-6-((2-(2-(2-((3-(2-(2,6-dioxopiperidin-3-yl)-1-oxoisoindolin-5-yl)prop-2-yn-1-yl)oxy)ethoxy)ethoxy)ethyl)carbamoyl)pyridin-2-yl)-N-(benzo[d]thiazol-2-yl)-1,2,3,4-tetrahydroisoguinoline-8-carboxamide]
> 8.00 | Cc1c(-c2ccc(N3CCc4cccc(C(=O)Nc5nc6ccccc6s5)c4C3)nc2C(=O)NCCOCCOCCOCCCc2cccc3c2C(=O)N(C2CCC(=O)NC2=O)C3=O)cnn1CC12CC3CC(CC(C3)C1)C2 (stereo not drawn) [degrader #30, 2-(5-(1-(adamantan-1-ylmethyl)-5-methyl-1H-pyrazol-4-yl)-6-((2-(2-(2-(3-(2-(2,6-dioxopiperidin-3-yl)-1,3-dioxoisoindolin-4-yl)propoxy)ethoxy)ethoxy)ethyl)carbamoyl)pyridin-2-yl)-N-(benzo[d]thiazol-2-yl)-1,2,3,4-tetrahydroisociuinoline-8-carboxamide]
> 8.00 | Cc1c(-c2ccc(N3CCc4cccc(C(=O)Nc5nc6ccccc6s5)c4C3)nc2C(=O)NCCOCCOCCOCCCc2ccc3c(c2)C(=O)N(C2CCC(=O)NC2=O)C3=O)cnn1CC12CC3CC(CC(C3)C1)C2 (stereo not drawn) [degrader #31, 2-(5-(1-(adamantan-1-ylmethyl)-5-methyl-1H-pyrazol-4-yl)-6-((2-(2-(2-(3-(2-(2,6-dioxopiperidin-3-yl)-1,3-dioxoisoindolin-5-yl)propoxy)ethoxy)ethoxy)ethyl)carbamoyl)pyridin-2-yl)-N-(benzo[d]thiazol-2-yl)-1,2,3,4-tetrahydroisociuinoline-8-carboxamide]
> 8.00 | Cc1c(-c2ccc(N3CCc4cccc(C(=O)Nc5nc6ccccc6s5)c4C3)nc2C(=O)NCCOCCOCCOCCCc2cccc3c2CN(C2CCC(=O)NC2=O)C3=O)cnn1CC12CC3CC(CC(C3)C1)C2 (stereo not drawn) [degrader #32]
> 8.00 | Cc1c(-c2ccc(N3CCc4cccc(C(=O)Nc5nc6ccccc6s5)c4C3)nc2C(=O)NCCOCCOCCOCCCc2ccc3c(c2)CN(C2CCC(=O)NC2=O)C3=O)cnn1CC12CC3CC(CC(C3)C1)C2 (stereo not drawn) [degrader #33, 2-(5-(1-(adamantan-1-ylmethyl)-5-methyl-1H-pyrazol-4-yl)-6-((2-(2-(2-(3-(2-(2,6-dioxopiperidin-3-yl)-1-oxoisoindolin-5-yl)propoxy)ethoxy)ethoxy)ethyl)carbamoyl)pyridin-2-yl)-N-(benzo[d]thiazol-2-yl) 1,2,3,4-tetrahydroisociuinoline-8-carboxamide]
7.00 to 8.00 | Cc1c(-c2ccc(N3CCc4cccc(C(=O)Nc5nc6ccccc6s5)c4C3)nc2C(=O)O)cnn1CC12CC3CC(C1)CC(C(=O)NCCCCNc1cccc4c1C(=O)N(C1CCC(=O)NC1=O)C4=O)(C3)C2 (stereo not drawn) [degrader #34, 6-(8-(benzo[d]thiazol-2-ylcarbamoyl)-3,4-dihydroisoquinolin-2(1H)-yl)-3-(1-(((1r,3r)-3-((4-((2-(2,6-dioxopiperidin-3-yl)-1,3-dioxoisoindolin-4-yl)amino)butyl)carbamoyl)adamantan-1-yl)methyl)-5-methyl-1H-pyrazol-4-yl)picolinic acid]
7.00 to 8.00 | Cc1c(-c2ccc(N3CCc4cccc(C(=O)Nc5nc6ccccc6s5)c4C3)nc2C(=O)O)cnn1CC12CC3CC(C1)CC(C(=O)NCCCCCCNc1cccc4c1C(=O)N(C1CCC(=O)NC1=O)C4=O)(C3)C2 (stereo not drawn) [degrader #35, 6-(8-(benzo[d]thiazol-2-ylcarbamoyl)-3,4-dihydroisoquinolin-2(1H)-yl)-3-(1-(((1r,3r)-3-((6-((2-(2,6-dioxopiperidin-3-yl)-1,3-dioxoisoindolin-4-yl)amino)hexyl)carbamoyl)adamantan-1-yl)methyl)-5-methyl-1H-pyrazol-4-yl)picolinic acid]
> 8.00 | Cc1c(-c2ccc(N3CCc4cccc(C(=O)Nc5nc6ccccc6s5)c4C3)nc2C(=O)O)cnn1CC12CC3CC(C1)CC(C(=O)NCCCCCCCCNc1cccc4c1C(=O)N(C1CCC(=O)NC1=O)C4=O)(C3)C2 (stereo not drawn) [degrader #36, 6-(8-(benzo[d]thiazol-2-ylcarbamoyl)-3,4-dihydroisoquinolin-2(1H)-yl)-3-(1-(((1r,3r)-3-((8-((2-(2,6-dioxopiperidin-3-yl)-1,3-dioxoisoindolin-4-yl)amino)octyl)carbamoyl)adamantan-1-yl)methyl)-5-methyl-1H-pyrazol-4-yl)picolinic acid]
7.00 to 8.00 | Cc1c(-c2ccc(N3CCc4cccc(C(=O)Nc5nc6ccccc6s5)c4C3)nc2C(=O)O)cnn1CC12CC3CC(C1)CC(C(=O)NCCCCCCCCCCNc1cccc4c1C(=O)N(C1CCC(=O)NC1=O)C4=O)(C3)C2 (stereo not drawn) [degrader #37, 6-(8-(benzo[d]thiazol-2-ylcarbamoyl)-3,4-dihydroisoquinolin-2(1H)-yl)-3-(1-(((1r,3r)-3-((10-((2-(2,6-dioxopiperidin-3-yl)-1,3-dioxoisoindolin-4-yl)amino)decyl)carbamoyl)adamantan-1-yl)methyl)-5-methyl-1H-pyrazol-4-yl)picolinic acid]
7.00 to 8.00 | Cc1c(-c2ccc(N3CCc4cccc(C(=O)Nc5nc6ccccc6s5)c4C3)nc2C(=O)O)cnn1CC12CC3CC(C1)CC(C(=O)NCCCCCCCCCCCCNc1cccc4c1C(=O)N(C1CCC(=O)NC1=O)C4=O)(C3)C2 (stereo not drawn) [degrader #38, 6-(8-(benzo[d]thiazol-2-ylcarbamoyl)-3,4-dihydroisoquinolin-2(1H)-yl)-3-(1-(((1r,3r)-3-((12-((2-(2,6-dioxopiperidin-3-yl)-1,3-dioxoisoindolin-4-yl)amino)dodecyl)carbamoyl)adamantan-1-yl)methyl)-5-methyl-1H-pyrazol-4-yl)picolinic acid]
